Reference: patent US20220233602A1, “GENERATION OF NEURAL STEM CELL LINES DERIVED FROM HUMAN PLURIPOTENT STEM CELLS” (Novo Nordisk A/S, priority 2019, published 2022)
“Also recorded” adds a separate entry of the source. Where two headings read alike, the source gives them in different places.

Columns and labels:
hESC [1] = details: for Cell death: 3 = low number of pyknotic nuclei; for Rosette: 3 = high number of neural rosettes; for Thickness Epithelium: thicker columnar epithelium of the neural rosette; for Final Score: sum of the parameter scores; for No Side Population (OTX2 Neg): score by OTX2 staining: 3 = no detection of OTX2 negative cells, evaluated only in conditions without NES negative cells
Procedure: The experimental protocol used for neural induction of hESC and subsequent generation and NSC line establishment can roughly be divided in three main stages—Neuroectoderm induction and NECS formation; NECS plating and rosette formation and finally NSC line establishment by replating the cells in expansion media.
50-90% confluent hESC were washed with PBS^−/− and dissociated from monolayer culture with TrypLE™ Select (Gibco) at 37° C. for approximately 5 minutes to obtain single-cell suspension. The single-cell suspension of hESCs was resuspended in NutriStem® supplemented with 10 μM ROCKi (Y-27632) and as standard 1 mL with cell densities of 1×10^5-2×10^5 cells per mL was seeded into one single well (around 3.5 cm^2) of a 12-well plates (Day 0).
At day 1, around 50% of the medium was exchanged with NECS media consisting of DMEM/F12 GlutaMAX™ supplement (Gibco™) supplemented with 20 U/mL Penicillin-streptomycin, 1% N-2 Supplement (Gibco™) and GW788388 or RepSox in different concentrations, without ROCKi. To initiate rotary NECS formation, plates were from day 1-6 placed on a Multi Bio 3D Mini-shaker (BioSan) at different speeds, timeslots, levels and angle. As an example, one optimal condition was:
The NECS media was exchanged everyday by removing half of the media and adding fresh medium. […] After 6 days in dynamic conditions all NECS were collected and plated in 2D on 48-well plates, laminin coated. For coating, 1:50 natural mouse laminin (L2020-1MG, Sigma-Aldrich, 1 mg/ml) was performing fine, but the type of laminin can be also extended to LN-521 or LN-511 (BioLamina). From day 7 to day 10, now in attachment in 2D, all media was removed, and cells were re-feed with fresh NECS media. An example of the different steps can be shown in FIG. 4, with images after Day 3 (dynamic suspension), Day 8 (neural rosettes in 2D) and Day 10 (before single cell dissociation).
The parameters measured were cell death, rosette formation, a monolayer formation in 2D, thickness of the epithelium formed in the rosette structure, and the absence of side population (all cells being NES and OTX2 positive), i.e. purity of the cell population
Cell death: Monitored by DAPI (4′,6-diamidino-2-phenylindole) staining. Pyknosis, or karyopyknosis, is the irreversible condensation of chromatin in the nucleus of a cell undergoing necrosis or apoptosis. After visual inspection under the fluorescent microscope, a score of 0 represent high number of pyknotic nuclei and a score of 3 a low number of pyknotic nuclei.
Rosette numbers: Monitored by DAPI, ZO1 and NES stainings. After visual inspection under the fluorescent microscope, a score of 0 represent low number of neural rosettes nuclei and a score of 3 a high number of rosettes.
Monolayer formation: Monitored by brightfield and DAPI staining. After visual inspection under the microscope, a score of 3 represent a flat monolayer of cells after NECS attachment.
Thickness of the rosette columnar epithelium: Monitored by DAPI staining. After visual inspection under the fluorescent microscope, a score of 3 represent a broader, thicker columnar epithelium of the neural rosette.
Side population: Monitored by specific stainings of NES and OTX2. After visual inspection under the fluorescent microscope, a score of […] represents no detection of NES negative cells. Only in conditions without NES negative cells, the OTX2 population was evaluated. In those cases, a score of 3 represents no detection of OTX2 negative cells.

hESC [2] = experiment: Differentiation protocol for NECS and rosette formation (brightfield, NES/ZO1 staining); format: cell-based, human; details: for neural rosette formation, RepSox compared to GW788388: hESCs treated, NES and ZO1 staining (FIG. 6); for morphology of NECS: suspension culture, brightfield (FIG. 3)
Text: As an example, one optimal condition was:

[3] = Low concentration (RepSox 0.25 μM, GW788388 0.1 ng/ml, SB525334 0.1 μM), score by DAPI: 0 = high number
[4] = Low concentration (RepSox 0.25 μM, GW788388 0.1 ng/ml, SB525334 0.1 μM), score: 0 = low number
[5] = Low concentration (RepSox 0.25 μM, GW788388 0.1 ng/ml, SB525334 0.1 μM), score: 3 = broader
[6] = Low concentration (RepSox 0.25 μM, GW788388 0.1 ng/ml, SB525334 0.1 μM), score: 3 = flat monolayer of cells after NECS attachment
[7] = Low concentration (RepSox 0.25 μM, GW788388 0.1 ng/ml, SB525334 0.1 μM), score: 6 = no detection of NES negative cells
[8] = Low concentration (RepSox 0.25 μM, GW788388 0.1 ng/ml, SB525334 0.1 μM)
[9] = score by DAPI staining: 0 = high number, RepSox 25 μM, LY2157299 10 μM, TEW-7197 10 μM, GW788388 10 ng/ml, SB525334 10 μM, SB431542 10 μM, SB431542+LDN 10 μM+10 μM, LY2109761 2 μM
[10] = score by DAPI, ZO1, NES staining: 0 = low number, RepSox 25 μM, LY2157299 10 μM, TEW-7197 10 μM, GW788388 10 ng/ml, SB525334 10 μM, SB431542 10 μM, SB431542+LDN 10 μM+10 μM, LY2109761 2 μM
[11] = score by DAPI: 3 = broader, RepSox 25 μM, LY2157299 10 μM, TEW-7197 10 μM, GW788388 10 ng/ml, SB525334 10 μM, SB431542 10 μM, SB431542+LDN 10 μM+10 μM, LY2109761 2 μM
[12] = score by NES staining: 6 = no detection of NES negative cells, RepSox 25 μM, LY2157299 10 μM, TEW-7197 10 μM, GW788388 10 ng/ml, SB525334 10 μM, SB431542 10 μM, SB431542+LDN 10 μM+10 μM, LY2109761 2 μM
[13] = score by brightfield and DAPI: 3 = flat monolayer of cells after NECS attachment, RepSox 25 μM, LY2157299 10 μM, TEW-7197 10 μM, GW788388 10 ng/ml, SB525334 10 μM, SB431542 10 μM, SB431542+LDN 10 μM+10 μM, LY2109761 2 μM
[14] = RepSox 25 μM, LY2157299 10 μM, TEW-7197 10 μM, GW788388 10 ng/ml, SB525334 10 μM, SB431542 10 μM, SB431542+LDN 10 μM+10 μM, LY2109761 2 μM
[15] = RepSox 25 μM, LY2157299 10 μM, TEW-7197 10 μM, SB431542+LDN 10 μM+10 μM, LY2109761 2 μM

Structure (SMILES) | Cell death (hESC [1]; [3]) | Rosette (hESC [1]; [4]) | Thickness Epithelium (hESC [1]; [5]) | Monolayer formation (hESC [1]; [6]) | No Side Population (NES Neg) (hESC [1]; [7]) | Final Score (hESC [1]; [8]) | Cell death (hESC [1]; [9]) | Rosette (hESC [1]; [10]) | Thickness Epithelium (hESC [1]; [11]) | No Side Population (NES Neg) (hESC [1]; [12]) | Monolayer formation (hESC [1]; [13]) | Final Score (hESC [1]; [14]) | neural rosette formation, RepSox compared to GW788388 (hESC [2]) | morphology of NECS (hESC [2]) | No Side Population (OTX2 Neg) (hESC [1]; [15]) | homogeneous population of neural rosettes with NES positive cells and ZO1 in the center of each rosette (hESC [2]; RepSox 25 and 50 μM (FIGS. 7 and 8)) | homogeneous population of neural rosettes with NES positive cells and ZO1 in the center of each rosette (hESC [2]; lower concentrations of RepSox (0.25 μM, 2.5 μM; FIGS. 7 and 8))
O=C(NC1CCOCC1)c1ccc(-c2cc(-c3cn[nH]c3-c3ccccn3)ccn2)cc1 [GW788388, N-(oxan-4-yl)-4-[4-(5-pyridin-2-yl-1H-pyrazol-4-yl)pyridin-2-yl]benzamide] | 2 | 2 | 2 | 3 | 0 | 9 | 3 | 3 | 3 | 0 | 3 | 12 | only few rosettes are observed | darker and denser core | – | – | –
c1ccc(-c2nn3c(c2-c2ccnc4cc(OCCN5CCOCC5)ccc24)CCC3)nc1 [LY2109761] | – | – | – | – | – | – | 0 | 0 | 0 | 6 | 0 | 9 | – | – | 3 | – | –
Cc1cccc(-c2nn3c(c2-c2ccnc4ccc(C(N)=O)cc24)CCC3)n1 [LY2157299, 4-[2-(6-methylpyridin-2-yl)-5,6-dihydro-4H-pyrrolo[1,2-b]pyrazol-3-yl]quinoline-6-carboxamide] | – | – | – | – | – | – | 3 | 3 | 3 | 6 | 2 | 17 | – | – | 0 | – | –
Cc1cccc(-c2n[nH]cc2-c2ccc3ncccc3n2)n1 [RepSox, 2-(3-(6-Methylpyridine-2-yl)-1H-pyrazol-4-yl)-1,5-naphthyridine] | – | 3 | 3 | 3 | 0 | 12 | – | 3 | 2 | 6 | 3 | 20 | superior; also recorded: multiple neural rosettes are observed | more transparent NECS; also recorded: bright cavities | 3 | optimal to obtain an homogeneous population of neural rosettes | less clear effect
NC(=O)c1ccc(-c2nc(-c3ccc4c(c3)OCO4)c(-c3ccccn3)[nH]2)cc1 [SB431542, 4-[4-(1,3-benzodioxol-5-yl)-5-(2-pyridinyl)-1H-imidazol-2-yl]benzamide] | – | – | – | – | – | – | – | 3 | 2 | 0 | 2 | 10 | – | – | – | – | –
Cc1cccc(-c2[nH]c(C(C)(C)C)nc2-c2ccc3nccnc3c2)n1 [SB525334] | 2 | 3 | 3 | 2 | 0 | 10 | 0 | 3 | 2 | 4 | 2 | 11 | – | – | – | – | –
Cc1cccc(-c2[nH]c(CNc3ccccc3F)nc2-c2ccc3ncnn3c2)n1 [TEW-7197, 2-fluoro-N[[5-(6-methylpyridin-2-yl)-4-([1,2,4]triazolo[1,5-a]pyridin-6-yl)-1H-imidazol-2-yl]methyl]aniline] | – | – | – | – | – | – | – | 2 | 2 | 6 | 2 | 15 | – | – | 3 | – | –
